# Target: T1, IRAK1 (Homo sapiens, UniProt P51617)
# T1 construct: purchased Thermo Fisher Scientific (Life Technologies) SelectScreen
# Test: SelectScreen Adapta
# Assay type: biochemical
# Outline: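 NU5455 was profiled across the SelectScreen Broad panel of kinase activity and binding assays. Z'LYTE reactions such as CSF1R ran at apparent Km ATP, while the Adapta CAMK1 assay used ATP listed as 10. Values are given as percent.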
# T1 sequence (P51617 whole entry): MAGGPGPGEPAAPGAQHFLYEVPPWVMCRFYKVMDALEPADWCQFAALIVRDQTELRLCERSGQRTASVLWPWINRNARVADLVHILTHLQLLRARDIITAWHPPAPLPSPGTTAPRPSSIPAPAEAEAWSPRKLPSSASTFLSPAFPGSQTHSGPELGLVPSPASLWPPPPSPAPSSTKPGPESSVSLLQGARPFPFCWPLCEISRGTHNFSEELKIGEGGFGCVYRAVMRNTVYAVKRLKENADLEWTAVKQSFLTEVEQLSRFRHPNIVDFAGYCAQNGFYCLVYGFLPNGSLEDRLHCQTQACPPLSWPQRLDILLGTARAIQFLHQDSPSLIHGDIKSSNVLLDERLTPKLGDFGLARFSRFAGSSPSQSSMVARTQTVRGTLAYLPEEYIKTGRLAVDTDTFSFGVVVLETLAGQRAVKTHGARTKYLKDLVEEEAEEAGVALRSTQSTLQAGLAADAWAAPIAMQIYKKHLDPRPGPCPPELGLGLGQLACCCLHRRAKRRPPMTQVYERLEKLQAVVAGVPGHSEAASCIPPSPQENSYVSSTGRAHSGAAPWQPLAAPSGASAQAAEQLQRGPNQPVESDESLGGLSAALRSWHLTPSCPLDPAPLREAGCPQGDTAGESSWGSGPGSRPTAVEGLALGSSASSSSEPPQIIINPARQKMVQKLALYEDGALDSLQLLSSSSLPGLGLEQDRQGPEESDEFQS
smiles,measurement,value
CN(C(=O)CN1CCOCC1)c1ccc2sc3c(-c4cccc5c(=O)cc(N6CC7CCC(C6)O7)oc45)cccc3c2c1 [NU5455],inhibition at 1 µM,4%

# Source: paper PMC6934184, “Selective DNA-PKcs inhibition extends the therapeutic index of localized radiotherapy and chemotherapy” (The Journal of Clinical Investigation, 2019)
